Reference: patent publication US20050261194A1, “Use of thymulin-like peptides for making pain-relieving medicines” (priority 2001, published 2005)

Legend:
Type in all cases: in vivo, rat
[1] = system: TNF-α; experiment: TNF-α in hind paw skin after intraplantar ET (ELISA)
Procedure: (§1) These experiments required tissue sampling. The animals were sacrificed by anesthesia (sodium penthiobarbital, 50 mg/kg) and the skin of the hind paws is sampled either at 1 h (for the determination of the TNFα) or at 4 h (for the determination of IL-1β, IL-6 and NGF) after the endotoxin injection.
(§2) These tissue samples are weighed and then quick frozen and stored at −70° C. with a view of proceeding with the evaluation of IL-1β, TNFα, IL-6 and NGF.
(§3) In another series of experiments, the tissues are taken as described above using different groups of rats; the one group being pretreated with TAP 30 minutes before injection of ET and the other group having been injected with TAP only.
(§4) The tissues are homogenized in a phosphate buffer solution (PBS, pH=7.4), containing 0.4 M of NaCl, 0.05% of Tween-20®, 0.5% bovine serum albumin (BSA), 0.1 mM of phenylmethylsulfonyl fluoride, 0.1 mM of benzethonium chloride, 10 mM of EDTA and 20 KI/mL of aprotinin.
(§5) The mixture is then centrifuged at 1,200 g for 60 minutes at 4° C. The cytokines and the NFG contained in the supernatant were measured using ELIZA assays. […]

[2] = system: IL-1β; experiment: IL-1β in hind paw skin after intraplantar ET (ELISA)
Procedure: as §1, §2, §3, §4, §5

[3] = system: IL-6; experiment: IL-6 in hind paw skin after intraplantar ET (ELISA)
Procedure: as §1, §2, §3, §4, §5

[4] = system: NGF; experiment: NGF in hind paw skin after intraplantar ET (immunological kit)
Procedure: as §1, §2, §3, §4
The mixture is then centrifuged at 1,200 g for 60 minutes at 4° C. The cytokines and the NFG contained in the supernatant were measured using ELIZA assays.
The NGF is measure with the aid of an immunological kit (Promega) by following the recommended instructions of the manufacturer. […]

[5] = system: rats; experiment: SNI (spared nerve injury) mononeuropathy: allodynia and hyperpathy
Procedure: Adult male Sprague-Dawley rats (250-300 g) were used for these trials. Over the period of the experiments, the rats were placed under standard conditions (4 to 5 individuals to a cage, 12 hour day/night cycle, 22.2° C.), with free access to water and food. The necessary surgical procedures were done under deep anesthesia using ketamine (Ketalar®, 40-50 mg/kg, intraperitoneal injection), preceded by pre-anesthesia using chlorpromazine (8 mg/kg, idem) and atropine (0.05 mg/kg, idem).
Mononeuropathy was induced in different groups of rats (n=6 rats in each group) according to the CCI (chronic constriction injury, chronic nerve constriction, Bennet G. J. et Xie Y. K., 1988, A peripheral mononeuropathy in rat that produces disorders of pain sensation like those seen in man, Pain, 33:87-107) or according to the SNI (spared nerve injury, spared nerve of the enervated paw, Decosterd I. et Woolf C. J., 2000, Spared nerve injury: an animal model of persistent peripheral neuropathic pain, Pain, 87:149-158). The sciatic nerve was exposed after dissection of the posterior hip and by incision through the skin and the fatty layer covering the popliteal fossa. For the CCI model, four loose ligatures (chromed catgut 4.0) were placed on the proximal side of the sciatic trifurcation. For the SNI model, the external popliteal sciatic nerve and the internal popliteal sciatic nerve were isolated, tightly ligatured and sectioned, while the sural nerve innervating the lateral aspect of the paw was left intact.
The rats were placed in individual compartments of one cage, whose floor was made of a metal grating allowing access to the heel pad and to the lateral aspect of the paw with wires.
For mechanical allodynia, the plantar surface of the hind paws (lateral surface for the SNI model and the median plantar surface for the CCI) was contacted with the von Frey wires (VFF 4.31 and 5.07, Stoelting Co., USA), which corresponded to the forces of 2.041 and 11.749 g (18.5 and 106.7 mN), respectively. […] The number of paw retractions induced by 10 trials was established for each rat on each hind paw prior to (baseline) and after induction of the mono-neuropathy. In normal rats, the low caliber wires (VFF 4.31) and higher caliber (VFF 5.07) induced an average 1.3±0.2 and 2.7±0.3 responses/10 trials, respectively.
The method described by Choi et al. (1994, Behavioral signs of ongoing pain and cold allodynia in a rat model of neuropathic pain, Pain, 59:369-376) was used for evaluation of cold allodynia. It consists of applying several drops (approximately 50 μl) of an acetone solution on the paw and measuring the duration of the retraction reaction. One half second and 20 seconds are the values chosen arbitrarily for the minimum and maximum threshold, respectively.
The duration (D) of retraction of the paw (RP) in response to a nociceptive ray of radiant heat oriented towards the plantar surface was established in the normal rat. […] the DRP after induction of the mononeuropathy was considered to be an indication of hyperalgesia. Each rat underwent two RP tests per session a minimum of every five minutes.
The neuropathic manifestations were at maximum seven to ten days after induction of the neuropathy. The effects of the injections of TAP were tested during this period, which corresponds to the peak of the neuropathy.
During the experiments done on rats suffering from neuropathy, allodynia and hyperpathy were evaluated in each group of animals with reference to the baseline condition established prior to induction of mononeuropathy. For example, the average of the number of paw withdrawal induced by each VFF was calculated for all of the rats of each group and the variation of this mean has been determined after treatment with TAP at different time periods after the injection. The same method has been followed for allodynia in the code and the hypertrophy relative to heat.

[6] = system: rats; experiment: Daily treatment with TAP in neuropathic rats (model not stated, FIG. 11); conditions: TAP 1 μg in 100 μL daily over 5 consecutive days
[7] = TAP 25 μg in control animals, no ET
[8] = SNI, meloxican 5 mg/kg i.p., morphine 4 mg/kg i.p., at peak of activity 45-60 minutes after injection, FIG. 10

## Glu-Ala-lys-Ser-Gln-Gly-Gly-Ser-Asp (SQGGSD; N-terminal Glu-Ala-Lys; printed: Ser-Gln-Gly-Gly-Ser-Asp) [TAP]
[1]; [7]
  change of TNF-α concentration, TAP alone: did not induce significant change
[1]; TAP pretreatment 30 min before ET, paw, one hour after ET, ET alone 345.0±61.0, saline 100.0±8.00 pg/paw
  effect on ET-induced increase of TNF-α concentration: nullified the increase of the TNF-α concentration
[2]; [7]
  change of IL-1β concentration, TAP alone: did not induce significant change
[2]; TAP pretreatment before intraplantar ET, ET alone 2850.6±255.4, saline 400.0±45.0, P<0.01
  IL-1β concentration: 1686.0±266.0 pg/paw
[3]; [7]
  change of IL-6 concentration, TAP alone: did not induce significant change
[3]; TAP pretreatment before intraplantar ET, ET alone 2831±285, saline 250.0±50.0, p<0.001
  IL-6 concentration: 1158±197.0 pg/paw
[4]; [7]
  change of NGF concentration, TAP alone: did not induce significant change
[4]; TAP pretreatment before intraplantar ET, ET alone 23.0±1.73, saline 9.11±1.6, p<0.001
  NGF concentration: 16.73±2.70 ng/paw
[5]; SNI, TAP 5 μg i.p.
  reversibility of the effects, time after injection: three to four hours
  time of maximum effect on all of the neuropathic manifestations after injection: 75 min
[5]; SNI, doses 1, 5 and 25 μg compared, FIG. 7
  dose giving maximal attenuation of the neuropathic manifestations: 5 μg/rat
[5]; [8]
  reduction of tactile allodynia compared with meloxican and morphine: greater reduction
  reduction of thermal hyperalgesia compared with meloxican and morphine: greater reduction
[5]; TAP 5 μg i.p., single injection
  effect on cold allodynia, SNI model: only moderately reduced
[5]; TAP 5 μg in 100 μl i.p., FIG. 6
  effect on neuropathic manifestations, SNI model: significant attenuation
[6]; FIG. 11
  effect of daily treatment on allodynia: progressive reduction of the manifestations of the allodynia
  effect of daily treatment on the effects of each injection: potentiation of the effects of each injection
[6]; compared with single injection
  effect of daily treatment on cold allodynia: increased inhibition of the cold allodynia
